Measured values taken from patent publication US8642544B2, “N-terminus conformationally constrained GLP-1 receptor agonist compounds” (Amylin Pharmaceuticals, LLC, priority 2009, dated 2014).

tested on: NIH/Swiss female mice; experiment: in vivo basal glucose lowering assay; details: Table 1, result in words (inactive / similar to GLP-1), subcutaneous injection
Method: Some compounds shown in Table 1 below were analyzed in an in vivo basal glucose lowering assay using the following procedure: A subcutaneous injection of either 200 μl phosphate-buffered saline (PBS) vehicle or test article was given immediately following baseline glucose (t=0) to NIH/Swiss female mice. Tail blood glucose samples were measured at t=2 and 4 hours post dose using a OneTouch® Ultra® (LifeScan, Inc., a Johnson & Johnson Company, Milpitas, Calif.). Body weight was measured daily. Significant test sample effects were identified by ANOVA (p<0.05), followed by Dunnett's post test using GraphPad Prism version 4.00 for Windows (GraphPad Software, San Diego Calif.).

SMILES	In Vivo Glucose-Lowering Assay
CC[C@H](C)[C@H](NC(=O)[C@H](Cc1ccccc1)NC(=O)[C@H](CC(C)C)NC(=O)[C@H](CCCNC(=N)N)NC(=O)[C@@H](NC(=O)[C@H](C)NC(=O)[C@H](CCC(=O)O)NC(=O)[C@H](CCC(=O)O)NC(=O)[C@H](CCC(=O)O)NC(=O)[C@H](CC(C)C)NC(=O)[C@H](CCC(N)=O)NC(=O)[C@H](CCCCN)NC(=O)[C@H](CO)NC(=O)[C@H](CC(C)C)NC(=O)[C@H](CC(=O)O)NC(=O)[C@H](CO)NC(=O)[C@@H](NC(=O)[C@H](Cc1ccccc1)NC(=O)[C@@H](NC(=O)[C@H]1CCCN(C(=O)[C@@H]2CCCN(C(=O)[C@H](C)NC(=O)[C@@H](N)Cc3c[nH]cn3)C2)C1)[C@@H](C)O)[C@@H](C)O)C(C)C)C(=O)N[C@@H](CCC(=O)O)C(=O)N[C@@H](Cc1c[nH]c2ccccc12)C(=O)N[C@@H](CC(C)C)C(=O)N[C@@H](CCCCN)C(=O)N[C@@H](CCC(N)=O)C(=O)NCC(=O)NCC(=O)N1CCC[C@H]1C(=O)N[C@@H](CO)C(=O)N[C@@H](CCCCN)C(=O)N[C@@H](CCC(=O)O)C(=O)N[C@H](C(=O)N[C@H](C(=O)N[C@@H](CO)C(N)=O)[C@@H](C)CC)[C@@H](C)CC [15A]	inactive
CC[C@H](C)[C@H](NC(=O)[C@H](Cc1ccccc1)NC(=O)[C@H](CC(C)C)NC(=O)[C@H](CCCNC(=N)N)NC(=O)[C@@H](NC(=O)[C@H](C)NC(=O)[C@H](CCC(=O)O)NC(=O)[C@H](CCC(=O)O)NC(=O)[C@H](CCC(=O)O)NC(=O)[C@H](CC(C)C)NC(=O)[C@H](CCC(N)=O)NC(=O)[C@H](CCCCN)NC(=O)[C@H](CO)NC(=O)[C@H](CC(C)C)NC(=O)[C@H](CC(=O)O)NC(=O)[C@H](CO)NC(=O)[C@@H](NC(=O)[C@H](Cc1ccccc1)NC(=O)[C@@H](NC(=O)CNC(=O)[C@H]1CCCN(C(=O)[C@@H]2CCCN(C(=O)[C@@H](N)Cc3c[nH]cn3)C2)C1)[C@@H](C)O)[C@@H](C)O)C(C)C)C(=O)N[C@@H](CCC(=O)O)C(=O)N[C@@H](Cc1c[nH]c2ccccc12)C(=O)N[C@@H](CC(C)C)C(=O)N[C@@H](CCCCN)C(=O)N[C@@H](CCC(N)=O)C(=O)NCC(=O)NCC(=O)N1CCC[C@H]1C(=O)N[C@@H](CO)C(=O)N[C@@H](CCCCN)C(=O)N[C@@H](CCC(=O)O)C(=O)N[C@H](C(=O)N[C@H](C(=O)N[C@@H](CO)C(N)=O)[C@@H](C)CC)[C@@H](C)CC [15C]	inactive
CC[C@H](C)[C@H](NC(=O)[C@H](Cc1ccccc1)NC(=O)[C@H](CC(C)C)NC(=O)[C@H](CCCNC(=N)N)NC(=O)[C@@H](NC(=O)[C@H](C)NC(=O)[C@H](CCC(=O)O)NC(=O)[C@H](CCC(=O)O)NC(=O)[C@H](CCC(=O)O)NC(=O)[C@H](CC(C)C)NC(=O)[C@H](CCC(N)=O)NC(=O)[C@H](CCCCN)NC(=O)[C@H](CO)NC(=O)[C@H](CC(C)C)NC(=O)[C@H](CC(=O)O)NC(=O)[C@H](CO)NC(=O)[C@@H](NC(=O)[C@H](Cc1ccccc1)NC(=O)[C@@H](NC(=O)CNC(=O)[C@@H]1CCCN(C(=O)[C@H]2CCCN(C(=O)[C@@H](N)Cc3c[nH]cn3)C2)C1)[C@@H](C)O)[C@@H](C)O)C(C)C)C(=O)N[C@@H](CCC(=O)O)C(=O)N[C@@H](Cc1c[nH]c2ccccc12)C(=O)N[C@@H](CC(C)C)C(=O)N[C@@H](CCCCN)C(=O)N[C@@H](CCC(N)=O)C(=O)NCC(=O)NCC(=O)N1CCC[C@H]1C(=O)N[C@@H](CO)C(=O)N[C@@H](CCCCN)C(=O)N[C@@H](CCC(=O)O)C(=O)N[C@H](C(=O)N[C@H](C(=O)N[C@@H](CO)C(N)=O)[C@@H](C)CC)[C@@H](C)CC [15D]	inactive

same assay, conditions: Table 1, time in hours, subcutaneous injection, tail blood glucose at t=2 and 4 hours post dose

SMILES	In Vivo Glucose-Lowering Assay
CC[C@H](C)[C@H](NC(=O)[C@H](Cc1ccccc1)NC(=O)[C@H](CC(C)C)NC(=O)[C@H](CCCNC(=N)N)NC(=O)[C@@H](NC(=O)[C@H](C)NC(=O)[C@H](CCC(=O)O)NC(=O)[C@H](CCC(=O)O)NC(=O)[C@H](CCC(=O)O)NC(=O)[C@H](CC(C)C)NC(=O)[C@H](CCC(N)=O)NC(=O)[C@H](CCCCN)NC(=O)[C@H](CO)NC(=O)[C@H](CC(C)C)NC(=O)[C@H](CC(=O)O)NC(=O)[C@H](CO)NC(=O)[C@@H](NC(=O)[C@H](Cc1ccccc1)NC(=O)[C@@H](NC(=O)CNC(=O)[C@@H]1CCCN1C(=O)CNC(=O)[C@@H](N)Cc1c[nH]cn1)[C@@H](C)O)[C@@H](C)O)C(C)C)C(=O)N[C@@H](CCC(=O)O)C(=O)N[C@@H](Cc1c[nH]c2ccccc12)C(=O)N[C@@H](CC(C)C)C(=O)N[C@@H](CCCCN)C(=O)N[C@@H](CCC(N)=O)C(=O)NCC(=O)NCC(=O)N1CCC[C@H]1C(=O)N[C@@H](CO)C(=O)N[C@@H](CCCCN)C(=O)N[C@@H](CCC(=O)O)C(=O)N[C@H](C(=O)N[C@H](C(=O)N[C@@H](CO)C(N)=O)[C@@H](C)CC)[C@@H](C)CC [2B]	more than 4 hours
CC[C@H](C)[C@H](NC(=O)[C@H](Cc1ccccc1)NC(=O)[C@H](CC(C)C)NC(=O)[C@H](CCCNC(=N)N)NC(=O)[C@@H](NC(=O)[C@H](C)NC(=O)[C@H](CCC(=O)O)NC(=O)[C@H](CCC(=O)O)NC(=O)[C@H](CCC(=O)O)NC(=O)[C@H](CC(C)C)NC(=O)[C@H](CCC(N)=O)NC(=O)[C@H](CCCCN)NC(=O)[C@H](CO)NC(=O)[C@H](CC(C)C)NC(=O)[C@H](CC(=O)O)NC(=O)[C@H](CO)NC(=O)[C@@H](NC(=O)[C@H](Cc1ccccc1)NC(=O)[C@@H](NC(=O)CNC(=O)[C@@H]1CCCCN1C(=O)CNC(=O)[C@@H](N)Cc1c[nH]cn1)[C@@H](C)O)[C@@H](C)O)C(C)C)C(=O)N[C@@H](CCC(=O)O)C(=O)N[C@@H](Cc1c[nH]c2ccccc12)C(=O)N[C@@H](CC(C)C)C(=O)N[C@@H](CCCCN)C(=O)N[C@@H](CCC(N)=O)C(=O)NCC(=O)NCC(=O)N1CCC[C@H]1C(=O)N[C@@H](CO)C(=O)N[C@@H](CCCCN)C(=O)N[C@@H](CCC(=O)O)C(=O)N[C@H](C(=O)N[C@H](C(=O)N[C@@H](CO)C(N)=O)[C@@H](C)CC)[C@@H](C)CC [2F]	more than 4 hours
CC[C@H](C)[C@H](NC(=O)[C@H](Cc1ccccc1)NC(=O)[C@H](CC(C)C)NC(=O)[C@H](CCCNC(=N)N)NC(=O)[C@@H](NC(=O)[C@H](C)NC(=O)[C@H](CCC(=O)O)NC(=O)[C@H](CCC(=O)O)NC(=O)[C@H](CCC(=O)O)NC(=O)[C@H](CC(C)C)NC(=O)[C@H](CCC(N)=O)NC(=O)[C@H](CCCCN)NC(=O)[C@H](CO)NC(=O)[C@H](CC(C)C)NC(=O)[C@H](CC(=O)O)NC(=O)[C@H](CO)NC(=O)[C@@H](NC(=O)[C@H](Cc1ccccc1)NC(=O)[C@@H](NC(=O)CNC(=O)[C@@H]1C[C@@H](O)CN1C(=O)CNC(=O)[C@@H](N)Cc1c[nH]cn1)[C@@H](C)O)[C@@H](C)O)C(C)C)C(=O)N[C@@H](CCC(=O)O)C(=O)N[C@@H](Cc1c[nH]c2ccccc12)C(=O)N[C@@H](CC(C)C)C(=O)N[C@@H](CCCCN)C(=O)N[C@@H](CCC(N)=O)C(=O)NCC(=O)NCC(=O)N1CCC[C@H]1C(=O)N[C@@H](CO)C(=O)N[C@@H](CCCCN)C(=O)N[C@@H](CCC(=O)O)C(=O)N[C@H](C(=O)N[C@H](C(=O)N[C@@H](CO)C(N)=O)[C@@H](C)CC)[C@@H](C)CC [2I]	more than 4 hours
